From paper PMC5870190, “A three-in-one-bullet for oesophageal cancer: replication fork collapse, spindle attachment failure and enhanced radiosensitivity generated by a ruthenium(II) metallo-intercalator” (Chemical Science, 2017)
One block for each molecule: values may come before it.

Experiments:
[1] = test system: OE21 human oesophageal squamous cell carcinoma; assay: MTT assay, OE21 cells; assay type: cell-based; conditions: for IC50: MTT
Procedure: (§1) MTT assay. OE21, FLO-1 or hSAEC1-KT cells were seeded in 96 well plates at 20,000 cells/well (for 24 h treatment) or 10,000 cells/well (for 72 h treatment) and allowed to adhere for 24 h before treatment. OE33 cells were seeded in 48 well plates at 40,000 cells/well (24 h treatment) or 20,000 cells/well (72 h treatment). Cancer cell lines were treated with chemicals dissolved in RPMI media for consistency. After incubation, 0.5 mg/ml MTT (thiazolyl blue tetrazolium bromide) dissolved in serum-free medium was added for 60 minutes and the formazan product eluted using acidified isopropanol.
(§2) The absorbance at 540 nm was quantified by plate reader (reference wavelength 650 nm). The metabolic activity of the cell population was determined as a percentage of a negative (solvent) control. […]
(§3) For the determination of mutation induction, from the untreated and each treated condition, 2x10^5 cells were plated in 10 x 100 mm dishes in selective media (regular media

[2] = test system: OE33 human oesophageal adenocarcinoma; assay: MTT assay, OE33 cells; assay type: cell-based
Procedure: as §1, §2, §3

[3] = test system: FLO-1 human oesophageal adenocarcinoma; assay: MTT assay, FLO-1 cells; assay type: cell-based
Procedure: as §1, §2, §3

[4] = test system: hSAEC1-KT normal human small airway epithelial cells; assay: MTT assay, hSAEC1-KT cells; assay type: cell-based
Procedure: as §1, §2, §3

[5] = test system: OE21 cells; assay: Clonogenic survival assay with IR, OE21; assay type: cell-based, human; conditions: Ru1 2 μM or Cis 500 nM for 24 h before IR
Procedure: (§4) Clonogenic survival assay. OE21, OE33 or FLO1 cells were treated with 2 µM Ru1 for 24 h before irradiation with 0-8 Gy using a 137Cs γ-irradiator (IBL637, CIS Bio Int.; dose rate = 0.809 Gy min−1). 1 h after irradiation, cells were detached using Trypsin and re-seeded in 6 well plates at a density of 300 – 20,000 cells/well in triplicate in an incrementally greater number of cells with increasing IR dose to ensure adequate colony formation. Cells were incubated for 7–14 days after re-seeding to allow colony formation before being fixed with 10% methanol, 10% acetic acid and stained with 0.4% methylene blue. OE33 cells required an additional formaldehyde fixation (4% in PBS, 5 mins) step before the addition of methylene blue solution or colony detachment occurred. Colonies containing 50 cells or greater were counted using a Gelcount instrument and accompanying software (Oxford Optronix). Plating efficiencies were determined for each treatment condition and normalised to an untreated control to provide the surviving fraction (S. F.). S.F. versus radiation dose curves were plotted in GraphPad Prism and fit using a second order polynomial function (R2 values > 0.99). Dose modifying factors (DMF) at a SF=0.1 were calculated using the equation: Dose modifying factor (DMF) = IR dose to give S.F. 0.1/IR dose plus compound to give S.F.0.1. […]

[6] = test system: OE33 cells; assay: Clonogenic survival assay with IR, OE33; assay type: cell-based, human; conditions: Ru1 2 μM or Cis 500 nM for 24 h before IR
Procedure: as §4

[7] = test system: FLO-1 cells; assay: Clonogenic survival assay with IR, FLO-1; assay type: cell-based, human; conditions: Ru1 2 μM or Cis 300 nM for 24 h before IR
Procedure: as §4

[8] = test system: OE21, OE33 or FLO-1 cells; assay: Clonogenic survival assay with IR, three oesophageal cancer cell lines; assay type: cell-based, human; conditions: Ru1 2 μM or sub-cytotoxic cisplatin (500 nM OE21 and OE33, 300 nM FLO-1), 24 h before IR; range over three cell lines
Procedure: as §4

[9] = test system: OE21 cells; assay: DNA fibre assay (replication fork progression); assay type: cell-based, human
Procedure: DNA fibre assay. The DNA fibre assay was performed as described previously.5 Briefly, OE21 cells were labelled with 30 µM CldU for 30 mins and then 250 µM IdU for an additional 30 mins. Either Ru1 (21 µM) or dppz (7 µM) was added during the second (IdU) nucleotide step (30 mins). DNA replication was terminated using ice-cold PBS and cells lysed (200 mM Tris-HCl pH 7.4, 50 mM EDTA and 0.5% SDS). DNA fibres were spread onto glass slides, fixed with methanol:acetic acid (3:1) and denatured with 2.5 M HCl. After blocking with 2% BSA, fibres were stained with anti-rat and anti-mouse 5-bromo-2′- deoxyuridine (BrdU) that specifically recognise either CldU (Abcam, dilution 1:500) or IdU (BD Sciences, 1:100). Anti-rat Cy3 (Jackson Immuno Research, 1:300) and anti-mouse Alexa-488 (Molecular Probes, 1:300) were used as the respective secondary antibodies. CldU- and IdU-labelled tracts were visualised using a Leica DMRB microscope with a DFC360FX camera and tract length measured by ImageJ software. Statistical analysis was performed by GraphPad Prism software using an unpaired t-test.
Western blotting. Treated samples were washed with cold PBS and lysed in RIPA (radioimmunoprecipitation assay) buffer containing protease inhibitors (10 μg/mL leupeptin, 2 μg/mL pepstatin, 50 μg/mL antipain, 2 μg/mL aprotinin, 20 μg/mL chyprostatin, 2 μg/mL benzamidine, 1 mM phenylmethanesulfonyl fluoride) and phosphatase inhibitors (50 mM NaF, 1 mM […]
Bis-Tris gels and LDS-PAGE. Gels were transferred onto nitrocellulose membrane and probed with primary antibodies in 5% BSA (bovine serum albumin) solutions at the following dilutions: 1/1000 dilution for majority of Cell Signaling antibodies and γH2AX. 1/500 for anti-p-ATR and anti-cleaved caspase 3. 1/200 anti-Chk1. 1/5000-1/10,000 anti- α-tubulin or β-actin.
(§5) Reactions were visualised with a suitable secondary antibody conjugated with horseradish peroxidase (1/5000 dilution, Thermo). […]

[10] = test system: OE21 cells; assay: Cell-cycle analysis by flow cytometry; assay type: cell-based, human; conditions: OE21, 7 μM, 24 h
Procedure: (§6) phototoxic contribution to bio-activity. Doxorubicin (Sigma) was prepared in doubly-distilled water (10 mg/mL, 17.4 mM).
[Ru(phen)2(dppz)]2+ (2 mM) was prepared in doubly-distilled water.
Sub-cellular fractionation. OE21 or OE33 cells were treated in 12 well plates, washed with cold PBS (2x2 mls) and nuclear and cytosol fractions obtained using the Nuclei EZ Lysis kit (Sigma). Briefly, cells were washed with acidified PBS (pH 2.5) to remove the membrane-bound fraction and 0.4 ml EZ lysis buffer was added. Cells were detached by scraping, collected into eppendorfs, vortexed briefly and left for 5 minutes on ice. Samples were centrifuged (500g, 5 mins) and the supernatant (cytosol fraction) aspirated. The pellet (nuclear fraction) was re-suspended in 200 µl RIPA buffer. […] Ruthenium content was determined by ICP-MS analysis as described in a recent […]
DNA fibre assay. […] CldU- and IdU-labelled tracts were visualised using a Leica DMRB microscope with a DFC360FX camera and tract length measured by ImageJ software. […]
Western blotting. […] Protein content was determined by BCA assay. […]
AnnexinV staining. […] This was incubated for 15 mins at room temperature, 400 µl binding buffer added and analysed by flow cytometry (FL1 and FL3 channels for FITC and PI respectively). […]

[11] = test system: OE21 cells; assay: Western blotting of DNA damage response (DDR) markers; assay type: cell-based, human; conditions: OE21, 24 h treatment
Procedure: as §6
[Ru(phen)2(dppz)]2+ (2 mM) was prepared in doubly-distilled water. […]
Western blotting. Treated samples were washed with cold PBS and lysed in RIPA (radioimmunoprecipitation assay) buffer containing protease inhibitors (10 μg/mL leupeptin, 2 μg/mL pepstatin, 50 μg/mL antipain, 2 μg/mL aprotinin, 20 μg/mL chyprostatin, 2 μg/mL benzamidine, 1 mM phenylmethanesulfonyl fluoride) and phosphatase inhibitors (50 mM NaF, 1 mM Na3VO4 and 20 mM β-glycerophosphate). Protein content was determined by BCA assay. Aliquots of cell lysates (10-50 μg total protein) were prepared in standard Laemmli buffer, heated at 95 °C for 5 minutes and resolved by NuPAGE® 4–12% Bis-Tris gels and LDS-PAGE. Gels were transferred onto nitrocellulose membrane and probed with primary antibodies in 5% BSA (bovine serum albumin) solutions at the following dilutions: 1/1000 dilution for majority of Cell Signaling antibodies and γH2AX. 1/500 for anti-p-ATR and anti-cleaved caspase 3. 1/200 anti-Chk1. 1/5000-1/10,000 anti- α-tubulin or β-actin.
as §5

[12] = cited from earlier work

Molecule: N.N.[Cl][Pt][Cl] [Cisplatin, cisplatin]
IC50 ([1]; OE21, 24 h constant exposure): 22.6 ± 3.6 µM | IC50 ([1]; OE21, 72 h constant exposure): 6.3 ± 0.6 µM | IC50 ([2]; OE33, 24 h constant exposure): 11 ± 1.4 µM | IC50 ([2]; OE33, 72 h constant exposure): 3.25 ± 1 µM | IC50 ([3]; FLO1, 24 h constant exposure): 26.5 ± 0.7 µM | IC50 ([3]; FLO1, 72 h constant exposure): 4.7 ± 0.7 µM | IC50 ([4]; 24 h constant exposure): 21.5 ± 5 µM | IC50 ([4]; 72 h constant exposure): 15.8 ± 2 µM | S.F. ([5]; OE21, IR 0 Gy): 1.000 | S.F. ([5]; OE21, IR 2 Gy): 0.587 | S.F. ([5]; OE21, IR 4 Gy): 0.320 | S.F. ([5]; OE21, IR 6 Gy): 0.159 | S.F. ([5]; OE21, IR 8 Gy): 0.049 | S.F. ([6]; OE33, IR 0 Gy): 0.993 | S.F. ([6]; OE33, IR 2 Gy): 0.280 | S.F. ([6]; OE33, IR 4 Gy): 0.077 | S.F. ([6]; OE33, IR 6 Gy): 0.022 | S.F. ([6]; OE33, IR 8 Gy): 0.005 | S.F. ([7]; FLO-1, IR 0 Gy): 0.929 | S.F. ([7]; FLO-1, IR 2 Gy): 0.340 | S.F. ([7]; FLO-1, IR 4 Gy): 0.080 | S.F. ([7]; FLO-1, IR 6 Gy): 0.007 | dose modification factor (DMF) at surviving fraction of 0.1 [8]: 1.05–1.44

IC50 ([1]; Homo sapiens, Table S2, OE21, 24 h constant incubation): 4.2 ± 0.3 µM | IC50 ([1]; Homo sapiens, Table S2, OE21, 72 h constant incubation): 0.21 ± 0.07 µM | IC50 ([2]; Homo sapiens, Table S2, OE33, 24 h constant incubation): 8.1 ± 2.7 µM | IC50 ([2]; Homo sapiens, Table S2, OE33, 72 h constant incubation): 0.07 ± 0.03 µM | IC50 ([3]; Homo sapiens, FLO-1, Table S2, FLO1, 24 h constant incubation): 6.1 ± 1.9 µM | IC50 ([3]; Homo sapiens, FLO-1, Table S2, FLO1, 72 h constant incubation): 0.05 ± 0.02 µM
Molecule: COc1cccc2c1C(=O)c1c(O)c3c(c(O)c1C2=O)C[C@@](O)(C(=O)CO)C[C@@H]3O[C@H]1C[C@H](N)[C@H](O)[C@H](C)O1 [DOX, doxorubicin]
reduction in potency towards OE21 cells compared to OE33 or FLO-1 cells ([1]; 72 h exposure): three-fold

IC50 ([1]; Homo sapiens, OE21, 24 h constant exposure): 6.5 ± 2.1 µM | IC50 ([1]; Homo sapiens, OE21, 72 h constant exposure): 3.3 ± 0.4 µM | IC50 ([2]; Homo sapiens, OE33, 24 h constant exposure): 6.6 ± 2 µM | IC50 ([2]; Homo sapiens, OE33, 72 h constant exposure): 5.7 ± 0.9 µM | IC50 ([3]; Homo sapiens, FLO-1, FLO1, 24 h constant exposure): 7.5 ± 0.8 µM | IC50 ([3]; Homo sapiens, FLO-1, FLO1, 72 h constant exposure): 1.9 ± 1.1 µM
Molecule: c1ccc2nc3c4cccnc4c4ncccc4c3nc2c1 [dppz, dipyridophenazine]
IC50 ([4]; Homo sapiens, Epithelial cell, 24 h constant exposure): > 10 µM | IC50 ([4]; Homo sapiens, Epithelial cell, 72 h constant exposure): > 10 µM | increase in completely stalled/terminated replication forks (CldU tract only) compared to mock-treated ([9]; Ru1 21 μM or dppz 7 μM during second (IdU) pulse, 30 min): three-fold | greater levels of stalled forks than Ru1 ([9]; dppz 7 μM vs Ru1 21 μM): two-fold | cell-cycle response [10]: cells accumulated in G1 or early S phase

Molecule: [Ru(phen)2(dppz)]^2+
IC50 ([1]; OE21, 24 h constant exposure): > 100 µM | IC50 ([1]; OE21, 72 h constant exposure): > 100 µM | IC50 ([2]; OE33, 24 h constant exposure): > 100 µM | IC50 ([2]; OE33, 72 h constant exposure): > 100 µM | IC50 ([3]; FLO1, 24 h constant exposure): > 100 µM | IC50 ([3]; FLO1, 72 h constant exposure): 34 ± 5.7 µM | DDR activation (γH2AX immunoblotting) [11]: no evidence of DDR activation | log P [12]: –1.48
